Test results: patent US12048686B2, “Compositions and methods for activating NRF2-dependent gene expression” (The University of Chicago, priority 2018, dated 2024)
Entries after “also recorded” stand apart in the source; their conditions may differ.

Columns and labels:
[1] = tested on: Primary murine alveolar macrophages; test: PM-induced mRNA expression in primary murine alveolar macrophages; format: cell-based; settings: pretreated 4 hours, 4 hours later
Experimental: FIG. 19A-C. Primary murine alveolar macrophages were treated with PM or vehicle control (media) in the absence or presence of CBR-470-1 (pretreated 4 hours prior to PM) and measured IL-6, TNFa and NQO1 mRNA 4 hours later.

[2] = tested on: Human lung fibroblasts; test: TGF-beta-induced collagen and SMA in human lung fibroblasts (Western blot); format: cell-based; settings: increasing doses, day 0, 1, 2
Experimental: FIG. 22. Human lung fibroblasts were treated with TGF-beta and increasing doses of CBR-470 and measured collagen and alpha-smooth muscle actin (a-SMA), a marker for myofibroblast differentiation at day 0, 1, and 2.
Fibrosis is defined by the overgrowth, hardening, and/or scarring of various tissues and is attributed to excess deposition of extracellular matrix components including collagen. Fibrosis is the end result of chronic inflammatory reactions induced by a variety of stimuli including persistent infections, autoimmune reactions, allergic responses, chemical insults, radiation, and tissue injury. Fibroblasts under stimulation by transforming growth factor (TGF)-β, a key cytokine in the pathogenesis of IPF, alter their gene expression profile with de novo expression of cytoskeletal and contractile proteins normally found within smooth muscle cells, and components of the extracellular matrix, including collagen. Fibroblast cells were treated with TGF-β for 24 or 48 hours or left untreated (0). Collagen was detected by Westernblot using an anti-collagen antibody (Cedarlane, CL50111AP-1, 1:3000 dilution). SMA was detected with an anti-SMA antibody from Sigma (T6074, 1:20000 dilution). […] Collagen and SMA production are biomarkers of fibrotic phenotypes in vivo (FIG. 22).

[3] = biological target: T1, KEAP1 (Homo sapiens, UniProt Q14145); test: MGx dose-response HMW-KEAP1 formation in FLAG-KEAP1 lysates or purified KEAP1; format: biochemical; settings: FLAG-KEAP1 containing lysates or purified KEAP1, freshly distilled MGx
T1 construct: full-length, human KEAP1 (28023, Addgene) was transiently expressed from a pcDNA/FRT/TO plasmid with a C-terminal 3×FLAG tag; host or cells: HEK293T
T1 sequence (Q14145 whole entry): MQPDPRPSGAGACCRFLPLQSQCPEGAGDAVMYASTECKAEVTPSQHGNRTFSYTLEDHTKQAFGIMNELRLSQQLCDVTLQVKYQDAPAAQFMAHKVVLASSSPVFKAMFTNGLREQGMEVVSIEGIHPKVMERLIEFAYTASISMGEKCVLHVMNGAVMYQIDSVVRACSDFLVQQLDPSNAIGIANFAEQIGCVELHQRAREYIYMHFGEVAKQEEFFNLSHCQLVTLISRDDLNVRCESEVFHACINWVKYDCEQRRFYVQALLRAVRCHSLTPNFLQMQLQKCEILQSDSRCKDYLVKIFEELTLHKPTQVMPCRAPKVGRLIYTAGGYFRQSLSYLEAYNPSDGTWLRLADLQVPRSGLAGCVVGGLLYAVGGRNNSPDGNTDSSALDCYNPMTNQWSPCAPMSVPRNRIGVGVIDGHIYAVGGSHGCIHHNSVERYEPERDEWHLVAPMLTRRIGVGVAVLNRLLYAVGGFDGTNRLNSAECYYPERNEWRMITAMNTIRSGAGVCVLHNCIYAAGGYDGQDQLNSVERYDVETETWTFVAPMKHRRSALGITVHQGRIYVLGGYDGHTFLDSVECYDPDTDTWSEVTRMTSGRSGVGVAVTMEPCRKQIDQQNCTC
Experimental: Metabolite Treatments and HMW-KEAP1 screening. For in vitro screening of glycolytic metabolites, HEK293T cells expressing FLAG-KEAP1 were lysed by snap-freeze-thaw cycles (3×) in PBS, pH 7.4, containing EDTA-free complete protease inhibitor (Roche). Lysates were cleared by centrifugation and the supernatants normalized for concentration by Bradford reagent (2 mg/mL). Concentrated stocks of each metabolite were made in PBS, which were added to the lysate samples for the final indicated concentrations and incubated at 37° C. for 2.5 hours with shaking. Following incubation, samples were denatured with 6 M urea and processed for SDS-PAGE and western blotting. Methylglyoxal (40% v/v with H2O), glyceraldehyde 3-phosphate (GAP), dihydroxyacetone phosphate (DHAP), and 2,3-bisphosphoglycerate (2,3-BPG) were all obtained from Sigma Aldrich and used as PBS stocks. […] Each mixture was incubated at 37° C. for 8 hours with rotating, HMW-KEAP1 formation was analyzed by SDS-PAGE and western blot.
For studies with recombinant KEAP1, FLAG-KEAP1 was expressed in HEK293T cells from transient transfection of the Flag-Keap1 plasmid (Addgene plasmid #28023). […] 12 μL of this reaction was then separated by SDS-PAGE and the presence of HMW-KEAP1 evaluated by anti-FLAG Western blotting as described or by silver staining using the Pierce Silver Stain Kit (ThermoFisher Scientific).

| SMILES | IL-6 mRNA [1] | NQO1 mRNA [1] | TNFa mRNA [1] | alpha-smooth muscle actin (a-SMA), marker for myofibroblast differentiation [2] | collagen protein [2] | formation of HMW-KEAP1 [3] |
| --- | --- | --- | --- | --- | --- | --- |
| CC(C)CN[C@H]1CS(=O)(=O)C[C@@H]1S(=O)(=O)c1ccc(Cl)cc1 [CBR-470-1] | attenuated PM-induced l6 and TNFa mRNA expression | induced NQO1 (Nrf2 target gene) | attenuated PM-induced l6 and TNFa mRNA expression | dose- and time-dependent inhibition of collagen and smooth-muscle actin (SMA) protein production; also recorded: inhibited myofibroblast differentiation and collagen protein expression in a dose dependent manner | dose- and time-dependent inhibition of collagen and smooth-muscle actin (SMA) protein production; also recorded: inhibited myofibroblast differentiation and collagen protein expression in a dose dependent manner |  |
| CC(=O)C=O [MGx, methylglyoxal, reference compound] |  |  |  |  |  | dose-dependent formation of HMW-KEAP1 at mid-μM concentrations |
